Source: patent publication US11478470B2, “Combination product of Bcl-2 inhibitor or Bcl-2/Bcl-xL dual inhibitor and BTK inhibitor and use thereof in the prevention and/or treatment of diseases” (ASCENTAGE PHARMA (SUZHOU) CO., LTD., priority 2018, dated 2022)
Read-outs that look alike come from different tables or passages of the source.

How the values were obtained:
OCI-LY1 cells = assay: Flow cytometry analysis of apoptosis (Annexin V/PI), OCI-LY1; assay type: cell-based, human; conditions: OCI-LY1, 24 hours; 15 nM Compound 6, 150 nM ibrutinib, or the combination
Method: Apoptosis was evaluated with AnnexinV/propidium iodide (PI) dyes (BD Biosciences, Cat. 556547) according to manufacturer's instructions. Briefly, cells were seeded in 24-well plates at a density 2×10^5 cells/well, and treated with Compound 6 and/or ibrutinib (Selleck) to induce apoptosis. After 24 h, cells were collected, washed twice with PBS (pH 7.4), and stained with Annexin-V and propidium iodide (PI) for 15 mins. Stained samples were analyzed using flow cytometer Attune NxT (Life technologies).
In the experiment, the combination treatment with Compound 6 and ibrutinib was evaluated for its ability of apoptosis induction on DOHH2 and OCI-LY1 cells by co-staining of Annexin-V/Propidium iodide (PI) followed by flow cytometry analysis (FIG. 7A). […] Flow cytometry analysis of apoptotic cells by Annexin V and propidium iodide (PI) co-staining in DOHH-2 and OCI-LY1 cell lines treated with 10 nM (DOHH-2) or 15 nM (OCI-LY1) Compound 6, 100 nM (DOHH-2) or 150 nM (OCI-LY1) ibrutinib, or the combination for 24 hours. Three independent experiments were conducted and the representative results are shown (7A). The percentages of Annexin V-positive, PI-positive, or double positive DOHH-2 (7B) and OCI-LY1 (7C) cells are plotted as bar charts and shown as mean±SEM (n=3) (**p<0.01, ***p<0.001).

[1] = tested on: human OCI-LY1 (DLBCL) xenograft tumor; assay type: in vivo
Method: All animal experiments were strictly in accordance with the laboratory animal use and management practices of GenePharma Co., Ltd. and Ascentage Pharma Group Co., Ltd. The calculation of relevant parameters referred to the Chinese CFDA “Guidelines for Non-Clinical Research Techniques of Cytotoxic Antitumor Drugs”.
Animal body weight and tumor size were measured twice a week during the experiment. Tumor growth was observed periodically, and the animals were randomly divided into groups according to tumor size and mouse body weight when the tumors grew to an average volume of 100-200 mm^3. The conditions and death of the animals were observed every day. Routine monitoring included the effects of tumor growth and treatment on normal animal behaviors, including activity, feeding and drinking situations, weight gain or loss, eyes, coat and other abnormalities in the experimental animals. The deaths and clinical symptoms observed during the experiment were recorded in the raw data. The entire operations of administration, measurement of mouse body weight and tumor volume were performed in a clean bench. Plasma and tumor tissues were collected, weighed and photographed after the end of the last administration according to the experimental protocol. Plasma and tumor samples were frozen and stored at −80° C.
Tumor volume (TV) was calculated as: TV=a×b^2/2, in which a and b represented the length and width of the tumor as measured, respectively. The relative tumor volume (RTV) was calculated as: RTV=Vt/V1, in which V1 was the tumor volume at the time of grouping and administration, and Vt was the tumor volume measured on a day after administration. […] Change of body weight %=(measured body weight−body weight at the time of grouping)/body weight at the time of grouping×100%.
If the synergy factor was >1, there was a synergistic effect; if the synergistic factor=1, there was an additive effect; if the synergistic factor <1, there was an antagonistic effect.
In short, when the average tumor volume reached approximately 90 mm^3, grouping and administration started. Ibrutinib was administered at a dose of 15 mg/kg, i.v., qd, from the day of grouping, for 3 weeks. […] On the 13th day after grouping, the administration was stopped and the observation period started.

[2] = Cpd. 6 100 mg/kg p.o. qd, Ibrutinib 15 mg/kg i.v. qd, day 43
[3] = Cpd. 6 100 mg/kg, Ibrutinib 15 mg/kg, including CR, PR and SD
[4] = Cpd. 6 100 mg/kg, Ibrutinib 15 mg/kg, mice per group
[5] = Cpd. 6 100 mg/kg, Ibrutinib 15 mg/kg, mice per group, listed as Cpd. 6

## O=C(NS(=O)(=O)c1ccc(NC[C@H]2COCCO2)c([N+](=O)[O-])c1)c1ccc(N2CCN(CC3=C(c4ccc(Cl)cc4)CC4(CCC4)CC3)CC2)cc1Oc1cnc2[nH]ccc2c1 [Compound 6, (S)-N-((4-(((1,4-dioxan-2-yl)methyl)amino)-3-nitrophenyl)sulfonyl)-2-((1H-pyrrolo[2,3-b]pyridin-5-yl)oxy)-4-(4-((6-(4-chlorophenyl)spiro[3.5]non-6-en-7-yl)methyl)piperazin-1-yl)benzamide]
OCI-LY1 cells
  apoptosis induction (Annexin V / PI positive cells): slightly enhanced apoptotic activity
[1]; [2]
  RTV on the 43rd day after administration (mean ± standard error): 1.03 ± 0.33
  T/C (%) on day 43 after administration: 4%
[1]; Cpd. 6 100 mg/kg, Ibrutinib 15 mg/kg, TGI = 100 − T/C%
  TGI (%) on day 43 after administration: 96%
[1]; Cpd. 6 100 mg/kg, Ibrutinib 15 mg/kg, day 50
  RTV on day 50 after administration (mean ± standard error): 2.64 ± 0.55
[1]; [3]
  remission rate % on day 43 after administration: 20%
  remission rate % on day 50 after administration: ( 10% )
  remission rate % on day 68 after administration: PR ( 0% )
[1]; Cpd. 6 100 mg/kg, Ibrutinib 15 mg/kg, including CR, PR and SD, listed as Cpd. 6
  remission rate % on day 43 after administration: ( 100% )
[1]; [4]
  Tumor status on day 43 after administration: CR (tumor complete regression): 1/5
  Tumor status on day 43 after administration: PR (tumor partial regression): 1/5
  Tumor status on day 50 after administration: CR: 0/5 CR,
  Tumor status on day 50 after administration: PR: 1/5 PR
  Tumor status on day 68 after administration: CR: 0/5 CR, 0/5
  Tumor status on day 68 after administration: PR: 0/5 CR, 0/5
[1]; [5]
  Tumor status on day 43 after administration: CR (tumor complete regression): 1/5 CR, 1/5
  Tumor status on day 43 after administration: PR (tumor partial regression): 1/5 CR, 1/5
